Measured values published in patent publication US8148424B2, “Tocopherols, tocotrienols, other chroman and side chain derivatives and uses thereof” (Research Development Foundation, priority 1998, dated 2012).

How the values were obtained:
MCF-7 cells = experiment: DNA synthesis arrest by 3H-uptake (Example 8); format: cell-based, human; details: Homo sapiens, MCF7, 5% serum, 3H-uptake at one day treatment
Method: (§1) MDA-MB-435 and MCF-7 cells at 1.5×10^5/well in 12 well plates for apoptosis and 1.5×10^4/well in 96 well plates for DNA synthesis arrest were incubated overnight in culture media and treated with α-tocopherol, α-tocotrinel, compound 1, 6-0-carboxymethyl alpha-tocotrienol (6-0-CM-α-T, 44), and vitamin E succinate (VES) at different concentrations in experimental media (2% serum for MDA-MB-435 cells and 5% serum for MCF-7 cells). DNA synthesis arrest was determined by ^3H-uptake at one day treatment and apoptosis was detected by DAPI staining at three day treatment. EC50 was calculated as the dosage of test compounds that gave 50% growth inhibition.

MDA-MB-435 cells = experiment: DNA synthesis arrest by 3H-uptake (Example 8); format: cell-based, human; details: Homo sapiens; MDA-MB-435; 2% serum; 3H-uptake at one day treatment
Method: as §1

[1] = tested on: Fas ligand on the membrane of LNCaP prostate cells; experiment: Fas ligand expression on cell membrane; format: cell-based
[2] = Solubility in ethanol (stock solution); format: physicochemical; details: in 5 mls of 100% ethanol, vortex at 37° C.
Description: This is the maximum amount of compound 1 that will go into solution.

[3] = tested on: DU-145 Human Prostate Cancer Cells Transplanted into Nude Mice; experiment: Preclinical chemotherapeutic xenograft study; format: in vivo; details: for Percent mean tumor weight gain (mg) following treatments: relative to day 1 of same group
Method: (§2) For the preclinical chemotherapeutic studies, in the absence of an maximum tolerated dose, the mice are supplemented with 30 and 20 mgs/0.1 ml by gavage daily for 21 days. Compound 1 is dissolved in 100% ethanol at 2 grams of compound 1/5 mls of ethanol, and diluted in peanut oil (nonsupplemented vitamin E) to yield 30 and 20 mgs of compound 1 per 0.1 ml. Vehicle control consisted of a mixture of ethanol and peanut oil equivalents. The preclinical chemotherapeutic studies are conducted with compound 1, utilizing human MDA-MB-435 human breast cancer cells, human DU-145 prostate cancer cells, and human HT-20 colon tumor cells transplanted into Balb/c immune compromised nude mice.
(§3) A total of 40 immune compromised nude mice are utilized for testing each test compound (two treatment groups at 20 and 30 mg/day) in each tumor cell type. […] Tumor cells are transplanted subcutaneously into the left flank and permitted to grow to approximately 70 mg in size, test compound treatments by daily gavage are initiated, and continue for a total of 21 days. Mice are monitored daily for tumor size by caliper measurements. Mice are treated for 21 days; however, the mice are sacrificed when the tumors of the vehicle control reached 500 mg in weight. At the completion of the protocol, tumors are excised and tumor size established by weight. At the time of sacrifice, serum, tumor, and heart muscle are taken from animals in the two compound 1 test groups in order to establish levels of compound 1 via HPLC analyses (data not included). The chemotherapeutic effectiveness of compound 1 administered daily at 30 and 20 mgs/day is determined by comparing the tumor size of the two treatment groups with the vehicle control group for each of the three tumor types, and by comparing the size of the tumor in the two treatment groups with the tumor group from the positive control. Treatment is for 21 days, experiments are continued until mean weight of tumor for vehicle control reaches 500 mgs.

[4] = tested on: HT-29 Human Colon Cancer Cells Transplanted into Nude Mice; experiment: Preclinical chemotherapeutic xenograft study; format: in vivo; details: for Percent mean tumor weight gain (mg) following treatments: relative to day 1 of same group
Method: as §2, §3

[5] = tested on: MDA-MB-435 Human Breast Cancer Cells Transplanted into Nude Mice; experiment: Preclinical chemotherapeutic xenograft study; format: in vivo; details: for Percent mean tumor weight gain (mg) following treatments: relative to day 1 of same group
Method: as §2, §3

[6] = 20 mg/day by gavage for 21 days, day 22
[7] = 30 mg/day by gavage for 21 days, day 22

## Cc1c(C)c2c(c(C)c1OCC(=O)O)CC[C@@](C)(CCC[C@H](C)CCC[C@H](C)CCCC(C)C)O2 [Compound 1, 2,5,7,8-tetramethyl-(2R-(4R,8R,12-trimethyltridecyl)chroman-6-yloxy)acetic acid]
MCF-7 cells
  EC50: 20 µM
MDA-MB-435 cells
  EC50: 15 µM
[1]
  expression of Fas ligand on the membrane: enhance the expression of Fas ligand
[2]
  maximum amount that will go into solution: 2 grams
[3]; [6]
  reduction of mean tumor weight vs vehicle control: 31.5%
[3]; 20 mg/day gavage, day 1
  Mean tumor Weights (mg) Following Treatments: 66.5 mg
  Percent mean tumor weight gain (mg) following treatments: 100%
[3]; 20 mg/day gavage, day 5
  Mean tumor Weights (mg) Following Treatments: 103.5 mg
  Percent mean tumor weight gain (mg) following treatments: 155.6%
[3]; 20 mg/day gavage, day 8
  Mean tumor Weights (mg) Following Treatments: 137.9 mg
  Percent mean tumor weight gain (mg) following treatments: 207.4%
[3]; 20 mg/day gavage, day 12
  Mean tumor Weights (mg) Following Treatments: 208 mg
  Percent mean tumor weight gain (mg) following treatments: 312.8%
[3]; 20 mg/day gavage, day 15
  Mean tumor Weights (mg) Following Treatments: 254.8 mg
  Percent mean tumor weight gain (mg) following treatments: 383.2%
[3]; 20 mg/day gavage, day 19
  Mean tumor Weights (mg) Following Treatments: 362.2 mg
  Percent mean tumor weight gain (mg) following treatments: 362.2%
[3]; 20 mg/day gavage, day 22
  Mean tumor Weights (mg) Following Treatments: 370.5 mg
  Percent mean tumor weight gain (mg) following treatments: 544.7%
[3]; [7]
  reduction of mean tumor weight vs vehicle control: 24.8%
[3]; 30 mg/day gavage, day 1
  Mean tumor Weights (mg) Following Treatments: 67.8 mg
  Percent mean tumor weight gain (mg) following treatments: 100%
[3]; 30 mg/day gavage, day 5
  Mean tumor Weights (mg) Following Treatments: 102.5 mg
  Percent mean tumor weight gain (mg) following treatments: 151.2%
[3]; 30 mg/day gavage, day 8
  Mean tumor Weights (mg) Following Treatments: 131.3 mg
  Percent mean tumor weight gain (mg) following treatments: 193.7%
[3]; 30 mg/day gavage, day 12
  Mean tumor Weights (mg) Following Treatments: 241.2 mg
  Percent mean tumor weight gain (mg) following treatments: 355.8%
[3]; 30 mg/day gavage, day 15
  Mean tumor Weights (mg) Following Treatments: 256.8 mg
  Percent mean tumor weight gain (mg) following treatments: 378.8%
[3]; 30 mg/day gavage, day 19
  Mean tumor Weights (mg) Following Treatments: 379.9 mg
  Percent mean tumor weight gain (mg) following treatments: 379.9%
[3]; 30 mg/day gavage, day 22
  Mean tumor Weights (mg) Following Treatments: 407 mg
  Percent mean tumor weight gain (mg) following treatments: 560.3%
[4]; [6]
  reduction of mean tumor weight vs vehicle control: 33.3%
[4]; 20 mg/day gavage, day 1
  Mean tumor Weights (mg) Following Treatments: 59.5 mg
  Percent mean tumor weight gain (mg) following treatments: 100%
[4]; 20 mg/day gavage, day 5
  Mean tumor Weights (mg) Following Treatments: 84.0 mg
  Percent mean tumor weight gain (mg) following treatments: 141.2%
[4]; 20 mg/day gavage, day 8
  Mean tumor Weights (mg) Following Treatments: 97.0 mg
  Percent mean tumor weight gain (mg) following treatments: 163.0%
[4]; 20 mg/day gavage, day 12
  Mean tumor Weights (mg) Following Treatments: 124.6 mg
  Percent mean tumor weight gain (mg) following treatments: 209.4%
[4]; 20 mg/day gavage, day 15
  Mean tumor Weights (mg) Following Treatments: 147.3 mg
  Percent mean tumor weight gain (mg) following treatments: 247.6%
[4]; 20 mg/day gavage, day 19
  Mean tumor Weights (mg) Following Treatments: 198.0 mg
  Percent mean tumor weight gain (mg) following treatments: 332.8%
[4]; 20 mg/day gavage, day 22
  Mean tumor Weights (mg) Following Treatments: 248.2 mg
  Percent mean tumor weight gain (mg) following treatments: 417.1%
[4]; [7]
  reduction of mean tumor weight vs vehicle control: 34.5%
[4]; 30 mg/day gavage, day 1
  Mean tumor Weights (mg) Following Treatments: 40.0 mg
  Percent mean tumor weight gain (mg) following treatments: 100%
[4]; 30 mg/day gavage, day 5
  Mean tumor Weights (mg) Following Treatments: 83.0 mg
  Percent mean tumor weight gain (mg) following treatments: 139.5%
[4]; 30 mg/day gavage, day 8
  Mean tumor Weights (mg) Following Treatments: 96.7 mg
  Percent mean tumor weight gain (mg) following treatments: 162.5%
[4]; 30 mg/day gavage, day 12
  Mean tumor Weights (mg) Following Treatments: 129.3 mg
  Percent mean tumor weight gain (mg) following treatments: 217.3%
[4]; 30 mg/day gavage, day 15
  Mean tumor Weights (mg) Following Treatments: 144.1 mg
  Percent mean tumor weight gain (mg) following treatments: 242.2%
[4]; 30 mg/day gavage, day 19
  Mean tumor Weights (mg) Following Treatments: 176.1 mg
  Percent mean tumor weight gain (mg) following treatments: 296.0%
[4]; 30 mg/day gavage, day 22
  Mean tumor Weights (mg) Following Treatments: 243.8 mg
  Percent mean tumor weight gain (mg) following treatments: 409.7%
[5]; 20 mg/day by gavage for 21 days, day 21
  reduction of mean tumor weight vs vehicle control: 20.7%
[5]; 20 mg/day gavage, day 1
  Mean tumor Weights (mg) Following Treatments: 70.1 mg
  Percent mean tumor weight gain (mg) following treatments: 100%
[5]; 20 mg/day gavage, day 4
  Mean tumor Weights (mg) Following Treatments: 85.8 mg
  Percent mean tumor weight gain (mg) following treatments: 122.4%
[5]; 20 mg/day gavage, day 7
  Mean tumor Weights (mg) Following Treatments: 123.9 mg
  Percent mean tumor weight gain (mg) following treatments: 176.7%
[5]; 20 mg/day gavage, day 10
  Mean tumor Weights (mg) Following Treatments: 127.9 mg
  Percent mean tumor weight gain (mg) following treatments: 182.5%
[5]; 20 mg/day gavage, day 14
  Mean tumor Weights (mg) Following Treatments: 147.2 mg
  Percent mean tumor weight gain (mg) following treatments: 210.0%
[5]; 20 mg/day gavage, day 17
  Mean tumor Weights (mg) Following Treatments: 143.8 mg
  Percent mean tumor weight gain (mg) following treatments: 205.1%
[5]; 20 mg/day gavage, day 21
  Mean tumor Weights (mg) Following Treatments: 179.4 mg
  Percent mean tumor weight gain (mg) following treatments: 255.9%
[5]; 30 mg/day by gavage for 21 days, day 21
  reduction of mean tumor weight vs vehicle control: 44.6%
[5]; 30 mg/day gavage, day 1
  Mean tumor Weights (mg) Following Treatments: 68.1 mg
  Percent mean tumor weight gain (mg) following treatments: 100%
[5]; 30 mg/day gavage, day 4
  Mean tumor Weights (mg) Following Treatments: 85.7 mg
  Percent mean tumor weight gain (mg) following treatments: 125.8%
[5]; 30 mg/day gavage, day 7
  Mean tumor Weights (mg) Following Treatments: 97.3 mg
  Percent mean tumor weight gain (mg) following treatments: 142.9%
[5]; 30 mg/day gavage, day 10
  Mean tumor Weights (mg) Following Treatments: 98.4 mg
  Percent mean tumor weight gain (mg) following treatments: 144.5%
[5]; 30 mg/day gavage, day 14
  Mean tumor Weights (mg) Following Treatments: 126.6 mg
  Percent mean tumor weight gain (mg) following treatments: 185.9%
[5]; 30 mg/day gavage, day 17
  Mean tumor Weights (mg) Following Treatments: 118.7 mg
  Percent mean tumor weight gain (mg) following treatments: 174.3%
[5]; 30 mg/day gavage, day 21
  Mean tumor Weights (mg) Following Treatments: 125.2 mg
  Percent mean tumor weight gain (mg) following treatments: 178.6%
